According to the METLIN SMRT retention time set (Domingo-Almenara et al. 2019):

Assay: gradient 5% acetonitrile 3 min, to 50% in 2 min, to 85% in 15 min, held 3 min, 100 µL/min
Conditions: column: Zorbax Extend-C18 2.1 x 50 mm; eluents: water / acetonitrile, 0.1% formic acid
Outline: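 Standards, all pure, were combined into mixtures of ~100 molecules and run at 100 μL/min on a Zorbax Extend-C18 column (2.1 × 50 mm, 1.8 μm) with water and acetonitrile, each containing 0.1% formic acid. A coupled quadrupole time-of-flight mass spectrometer operated in positive and negative ionization mode. Retention time values come from computationally picked adduct peaks, each inspected manually.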

| Structure (SMILES) | RP-LC retention time [s] |
| --- | --- |
| Cc1[nH]c(C(=O)N2CCCC(C(=O)N3CCN(C4CCCCC4)CC3)C2)c(C)c1C(=O)OC(C)C (stereo not given) | 645 |
| O=C(CN1C(=O)NC2(CCCCC2)C1=O)Nc1cc(F)cc(F)c1 | 827 |
| O=C(NC1CCCCC1)c1nc(Nc2ccccc2)c2ccccc2n1 | 861 |
| O=C(c1c[nH]c2ccccc12)N1CCC(c2nc(-c3ccccc3)no2)C1 (stereo not given) | 901 |
| Cc1cccc(CNC(=O)C2(C)Cn3cnc(C(=O)NCc4ccccc4)c3C(=O)N2C2CC2)c1 (stereo not given) | 766 |
| O=C(CN1c2ccc(F)cc2-c2ccccc2S1(=O)=O)Nc1cccc(F)c1 | 982 |
| COC(=O)C1=CN(c2ccc(C(=O)OC)cc2)c2ccccc2S1(=O)=O | 747 |
| O=C(CN1C(=O)C(C(=O)N2CCCCC2)Sc2ccccc21)N1CCN(c2ccccc2F)CC1 (stereo not given) | 960 |
| Cn1nc(-c2ccc(NC(=O)c3cccc4ccccc34)cc2)ccc1=O | 763 |
| COc1ccc(NC(=O)Nc2nc(CCC(=O)O)cs2)cc1 | 647 |
| COC(=O)c1c(-c2ccc(Cl)cc2)noc1NC(C)C | 1090 |
| Cc1oc(-c2ccc(NC(=O)Cc3ccc(Cl)cc3)cc2)nc1Cn1cccn1 | 941 |
| O=C(NCC1CC(=O)N(c2ccc3c(c2)OCO3)C1)C1CC1 (stereo not given) | 606 |
| CCN1C(=O)c2cccnc2Sc2cc(NC(=O)CCc3ccccc3OC)ccc21 | 871 |
| O=S(=O)(NCCc1csc(-c2cccc(F)c2)n1)c1ccccc1Cl | 989 |
| COc1ccc2[nH]cc(CCNC(=O)c3ccc(F)cc3)c2c1 | 778 |
| CC12CC(c3ccccc3O1)C(C(=O)N1CCN(C(=O)c3ccco3)CC1)C(=O)N2 (stereo not given) | 624 |
| CCc1nc2cccnc2n1CCN1CCN(C(=O)Nc2ccc(Br)cc2)CC1 | 631 |
| O=C(Cn1nc(C(=O)N2CCOCC2)c2ccccc21)Nc1ccc(F)cc1F | 732 |
| O=C(NCCCN1CCOCC1)c1csc(N2CCN(c3ccccc3)CC2)n1 | 654 |

| Structure (SMILES) | RP-LC retention time [s] |
| --- | --- |
| Cc1ccc(C(=O)Nc2cc(-c3cccnc3)no2)cc1 | 764 |
| Cc1cc(C(=O)NCc2cccc(F)c2)nc2cc(-c3cccs3)nn12 | 1090 |
| Cc1cc(-c2csc(Nc3ccc(N(C)C)cc3)n2)ccc1F | 767 |
| Cc1ccc(NC(=O)N2CCCC2C(=O)NC(C)C)cc1 (stereo not given) | 694 |
| O=C(Cc1c[nH]c2ncccc12)NCC1CCCCC1 | 644 |
| O=C(C1CCCN(c2nnc(N3CCCC3=O)s2)C1)N1CCN(c2ccccn2)CC1 (stereo not given) | 582 |
| CC(NC(=O)Cc1ccc(Cl)cc1)C(=O)Nc1nc2ccccc2[nH]1 (stereo not given) | 680 |
| Cc1cc(C(=O)N2CC(N(C(=O)NC(C)C)C3CCOCC3)C2)nn1C | 576 |
| Oc1ccc2c3c1O[C@H]1c4[nH]c5ccccc5c4C[C@@]4(O)C(C2)N(CC2CC2)CC[C@]314 | 717 |
| COc1ccc2c(c1O)[C@]13CCN(C)[C@H](C2)[C@@H]1CCC(=O)C3 | 622 |
| COc1ccc(C2CC(=O)N(c3ccc(C)c(F)c3)C(=O)C2)cc1 | 954 |
| COc1cc([C@@H]2c3cc4c(cc3[C@H](O)C3COC(=O)[C@@H]32)OCO4)cc(OC)c1OC (stereo not given in full) | 811 |
| CCOc1ccc(NC(=O)C2CC(=O)N(c3n[nH]c4cccc(F)c34)C2)cc1 (stereo not given) | 744 |
| O=C(CCc1nc2ccccc2s1)N1CCC(c2noc(-c3ccccn3)n2)C1 (stereo not given) | 755 |
| COC(=O)c1sccc1NC(=O)NCC(c1ccc(OC)c(OC)c1)c1c[nH]c2ccccc12 (stereo not given) | 978 |
| c1cn2cnnc2cc1-c1noc(-c2ccc3c(c2)OCO3)n1 | 792 |
| CCn1nccc1-c1cccc(-c2noc(-c3ccsc3)n2)c1 | 1130 |
| O=C1NCCc2c1[nH]c1ccccc21 | 750 |
| CSc1ccccc1CN1CCC(CNC(=O)C(=O)NCCC2=CCCCC2)CC1 | 622 |
| O=C(c1ccccc1OCC1CCCN(C2CCC2)C1)N1CCCC1 (stereo not given) | 615 |

| Structure (SMILES) | RP-LC retention time [s] |
| --- | --- |
| COC(=O)c1c(-c2ccc(OC)cc2)csc1N | 822 |
| CCCOc1ccc(C(=O)Nc2nnc(C3CC(=O)N(c4ccccc4)C3)o2)cc1 (stereo not given) | 800 |
| CC(C)c1cccc(N2C=C(C(=O)N3CCOCC3)S(=O)(=O)c3ccccc32)c1 | 878 |
| Cc1ccc(-c2noc(Cn3ccnc3)n2)cc1C | 659 |
| CN(C)CCNC(=O)c1ccc(CS(=O)Cc2ccccc2Cl)o1 (stereo not given) | 597 |
| O=C(c1ccc(Br)o1)N1C[C@@H](CO)[C@H](c2ccncc2)C1 | 515 |
| Cc1ccc(OCC(=O)NCC2(C)CCOCC2)cc1 | 784 |
| O=C(Cn1nc(C(=O)N2CCOCC2)c2ccccc21)NCc1ccc(F)cc1 | 715 |
| O=C(COc1ccccc1)N1CC(F)(F)C[C@H]1c1nnc(C2CC2)o1 | 768 |
| CCOc1ccc(-c2nnc(SCC(=O)N3CCCC3)o2)cc1 | 757 |
| Cn1cc(CCN2CCC(C(=O)NCC3CCCO3)CC2)c2cccnc21 (stereo not given) | 562 |
| Cc1ccc(F)cc1-n1cc(C(=O)O)c2ccccc2c1=O | 791 |
| COc1ccc(CNC(=O)NCCC(O)C(C)(C)C)cc1 (stereo not given) | 678 |
| CCCc1nc2cccnc2n1C1CCN(C(=O)c2ccc(C)c(N3CCCC3=O)c2)C1 (stereo not given) | 580 |
| C=CCn1c(C)c(CC(=O)NC2CCCC2)c(=O)n2nc(-c3ccccc3)nc12 | 684 |
| Cc1cccc(N2C(=O)CN(Cc3ccccc3Cl)[C@H]3CS(=O)(=O)C[C@H]32)c1 | 917 |
| Cc1[nH]c2ccccc2c1C(=O)C(=O)Nc1ccccc1F | 846 |
| O=c1c2sccc2n(Cc2nc(-c3ccc(F)cc3)no2)c(=O)n1-c1cccc(F)c1 | 970 |

More lines, now with the values ahead:

| RP-LC retention time [s] | Structure (SMILES) |
| --- | --- |
| 709 | COc1ccc(Cl)cc1NC(=O)CN1CCN(c2ccccc2F)CC1 |
| 801 | CCN(C(=O)c1cc2c(=O)n(C)c(=O)n(C)c2s1)c1ccc(OC)cc1 |
| 1130 | COc1ccc(-c2nnc(-c3cccc(S(=O)(=O)N4CCCCCC4)c3)o2)cc1 |
| 706 | O=C1C(=O)N(C2CCN(C(=O)c3ccc(Br)o3)CC2)CCN1Cc1ccccc1 |
| 751 | COc1ccc(C(=O)NC2CCN(c3nnc4ccc(C(F)(F)F)cn34)CC2)cc1 |
| 637 | O=S(=O)(c1cccnc1)N1CCC(OC2CCN(Cc3ccccc3)CC2)CC1 |
| 566 | Cn1nc(N2CCC(NC(=O)CCn3cnnn3)CC2)ccc1=O |
| 757 | Cc1cccn2c(=O)c3cc(C(=O)NCCc4ccc(S(N)(=O)=O)cc4)n(C)c3nc12 |
| 668 | COCCOC1CCN(C(=O)Nc2ccc3c(c2)OCCO3)CC1 |
| 767 | COc1ccc(-c2nnc(N3CCC(C(=O)NCc4cccs4)CC3)o2)cc1 |
| 664 | COc1ccc(S(=O)(=O)N2CCC(C(=O)Nc3ncnc4c3CCC4)CC2)cc1 |
| 825 | C=Cc1ccc(Cn2cc(S(=O)(=O)N3CCOCC3)ccc2=O)cc1 |
| 609 | CC(C)n1nnc2cc(S(=O)(=O)N3CCCC3C(=O)N3CCN(c4ccccn4)CC3)ccc21 (stereo not given) |
| 1030 | COC(=O)c1cc(C2CC2)nc2c1c(=O)n(Cc1ccccc1)c(=O)n2C |
| 970 | COc1ccc(-c2nnc(-c3ccc(C)c(S(=O)(=O)N4CCSCC4)c3)o2)cc1OC |
| 1300 | CC1CCCN(c2nccnc2SCC(=O)Nc2ccc(F)cc2Cl)C1 (stereo not given) |

| RP-LC retention time [s] | Structure (SMILES) |
| --- | --- |
| 724 | Cc1nc(CCNC(=O)C2CCN(S(=O)(=O)c3ccc(F)c(F)c3)CC2)cs1 |
| 754 | COc1ccc(-c2cn3c(CC(=O)N4CCc5ccccc5C4)csc3n2)cc1OC |
| 784 | CC(=O)N1CCCc2cc(S(=O)(=O)CCC(=O)Nc3ccc(C)c(C)c3)ccc21 |
| 678 | CCc1nc(-c2csc(S(=O)(=O)N3CCCC(C(=O)Nc4cccnc4)C3)c2)no1 (stereo not given) |
| 965 | COC(=O)c1ccc2nc(NC(=O)c3cc(Cl)ccc3Cl)sc2c1 |
| 1120 | Cc1ccc(-c2noc(-c3cccc(S(=O)(=O)N4CCOCC4)c3)n2)cc1 |
| 970 | CCOc1ccccc1NC(=O)Cn1nnc(C(=O)Nc2cc(Cl)ccc2OC)c1N |
| 859 | CN1C(=O)c2cccnc2Sc2cc(NC(=O)c3cc(Cl)ccc3F)ccc21 |
| 710 | O=C(N[C@H]1C[C@@H]2C[C@H]1CN2C(=O)Cc1c(F)cccc1Cl)c1cccs1 |
| 641 | Cc1nnsc1C(=O)N1CCC(CNC(=O)Cn2c(=O)oc3ccccc32)CC1 |
| 1210 | COc1ccc(Cl)cc1NC(=O)c1cc(S(=O)(=O)N2CCC(C)CC2)cn1C |
| 848 | COc1ccc(CNC(=O)C(C)n2sc3ccccc3c2=O)cc1OC (stereo not given) |
| 695 | Cc1ccc(NS(=O)(=O)c2cc(-c3[nH]ncc3C(=O)N3CCOCC3)oc2C)cc1 |
| 785 | O=C1NC2(CCN(C(=O)Cc3cccc(F)c3)CC2)Nc2c(Cl)cccc21 |
| 692 | CC(C)NC(=O)c1ccc2c(c1)NC(=O)C1CCCCN21 (stereo not given) |
| 717 | CCOc1ccc(CNC(=O)C2CCN(Cc3cn(C)c4ccc(Cl)cc34)CC2)cc1OC |
